These are literature values, as cited in patent publication US6939987B2, “Method for producing Aspartame derivative, method for purifying the same, crystals thereof and uses of the same” (Ajinomoto Co., Inc., priority 1999, dated 2005).

The conditions of this series: relative to sucrose; reported in International Patent Publication WO94/11391.

In the case of `COC(=O)[C@H](Cc1ccccc1)NC(=O)[C@H](CC(=O)O)NCCC(C)(C)C` [N-[N-(3,3-dimethylbutyl)-L-α-aspartyl]-L-phenylalanine 1-methyl ester], the sweetening potency is reported as 10000 times that of sucrose.
